Data set [1] in a line: Body weight of pups raised in small or large (malnourished) litters, daily neonatal injections. It counts as in vivo, mouse (ICR strain). As to the method:
(§1) Using an environmental manipulation technique, within 24 hours of birth, half of each mouse litter (ICR strain) was cross-fostered to the dam of another litter born on the same day. The mouse pups of every two litters were divided up between the 2 dams such that one dam reared 4 pups (‘small litter’) and the other dam raised 18-20 pups (large litter). Pups raised in the large litter were expected to suffer from malnutrition due to the crowded environment. Half of each litter received daily injections of the endocannabinoid 2-arachidonoyl glycerol (2-AG) or THC, the major psychoactive molecule in the Cannabis sativa (marihuana) plant for the first 5 days of life. The doses used were 1 or 5 mg/kg THC or 0.1, 1 or 5 mg/kg 2-AG. Body weights were recorded daily. The body weight of pups from the small and the large litters were analyzed by two-way analysis-of-variance.

A short description of data set [2]: Porsolt forced swim test at adulthood. It counts as in vivo, mouse (ICR strain). The note with it: treated in infancy, tested at adulthood; FIG. 3A. The text has this: (§2) At adulthood (3 months of age), mice were subjected to the open field assay for motor activity (ambulation and rearing), to the Porsolt forced swim test for anti-depressant-like effects and to the prepulse-inhibited acoustic startle response (PPI) assay which assesses sensorimotor gating.
Porsolt forced swim test: The forced swimming test was based on previous designs (Harkin et al., 2004; Petit-Demouliere et al., 2005; Treit and Menard, 1998): mice were placed in a 2 liter glass beaker (11 cm diameter) filled with water (24+1° C.) up to […] from the bottom (so that the mouse could not touch the bottom) and 8 cm from the rim (so that the mouse cannot escape). […] Immobility at 9 min was analyzed by a t-test, P<0.05.

The nature of data set [3]: Motor activity (ambulation) in an open field at 3 months of age. In kind it is in vivo, mouse (ICR strain). The settings on record: tested at 3 months of age. As to the method:
as §2
Motor activity in an Open field: Mice were placed in a transparent open field (30×40 cm, divided into 20 squares of equal size), measuring horizontal (ambulatory) and vertical activity, for 6 minutes (min), by manually scoring the number of squares crossed (see (Fride and Mechoulam, 1993).
The bottom of the open field was divided into 20 squares of equal size. Activity was assessed as the number of squares crossed.

Data set [4] can be described thus: Intracerebral versus subcutaneous injection, pup body weight gain. It counts as in vivo, mouse (ICR strain). The note with it: day 1 of birth, FIG. 8A-E. As to the method: Newborn (day 1 of birth) mouse pups (ICR strain) were injected subcutaneously (sc) with SR141716 (SR, 20 or 40 mg/kg), as described previously (Fride, 2004; Fride et al., 2003; Fride et al., 2001). In addition, littermates were injected with SR directly into the brain, at 2 depths (2-3 mm) and at several doses 4.5, 9.0 or 22.5 μg (between 50 and 10-fold lower concentrations than the sc injections).

Data set [5] can be described thus: Growth and survival of newborn Spiny wild mice. It counts as in vivo, Spiny wild mice (acomys cahirinus). The settings on record: 50 mg/kg. From the text: FIG. 9A illustrates the relative state of maturation in terms of the growth curve during the first two postnatal weeks in laboratory (ICR strain) mice, compared to Spiny wild mice (acomys cahirinus) which is born at a more advanced stage of development. […] This is similar to the difference in brain maturation predicted by the model designed by Clancy and colleagues (Clancy et al., 2007), i.e., the day of birth of the spiny mouse being equivalent to postnatal day 8 in the laboratory mouse.

The nature of data set [6]: Prepulse inhibition (PPI) of the acoustic startle response. It counts as in vivo, mouse. The note with it: treated at birth; FIG. 7. As to the method:
Prepulse Inhibition (PPI) of the startle reflex: In this experimental model a weak stimulus (70-90 db tone) inhibits the subsequent response to a strong stimulus (120 db tone). Reduced prepulse inhibition of the startle reflex (PPI) is taken as an additional index of the positive symptoms of schizophrenia (Josselyn and Vaccarino, 1998; Swerdlow and Geyer, 1998). PPI was assessed as described previously (Varty et al., 2001). In the model employed, mice were placed in a startle chamber (Hamilton and Kinder, Poway, Calif., USA). A high frequency loudspeaker produces a 65 db background noise and the various acoustic stimuli: 77 and 81 db prepulse; 120 db startle, separated by 100 ms. The startle response of the mouse is transduced and stored by a computer. Sixty-five readings are taken at 1 ms intervals, and the average amplitude is taken as the startle response. Each test session lasts for about 20 min and consists of 10 presentations of each of the six trial types (Prepulse, Prepulse+Pulse, Pulse or no stimulus other than background) separated by 15 s. The amount of prepulse inhibition is calculated as %PPI=[1-(startle response for Prepulse+Pulse)/(startle response for Pulse alone)]×100.

Data set [7] can be described thus: Food intake ('milkbands') of pups raised in small or large litters. In kind it is in vivo, mouse (ICR strain). The settings on record: THC 1 or 5 mg/kg, daily injections for the first 5 days of life. As to the method: as §1
On each subsequent day, pups were briefly separated from their mothers for the duration of weighing and scoring of the presence of “milkbands” in their stomachs. (As the stomach area in mouse pups is transparent, due to lack of hair and the thinness of the skin, the amount of milk consumed can be observed as a “milkband”).

In the case of `CCCCC/C=C\C/C=C\C/C=C\C/C=C\CCCC(=O)OC(CO)CO` [2-AG, 2-arachidonoyl glycerol], the “effect on the growth curve” value is “no effect on the growth curve” in data set [1] (0.1 mg/kg (lowest dose), daily injections for the first 5 days of life) and “no effect on the growth curve” in data set [1] (5 mg/kg (highest dose), daily injections for the first 5 days of life). Also, the body weight gain entry in data set [1] (1 mg/kg, daily injections for the first 5 days of life, malnourished (overcrowded) litters, FIG. 1) was “significantly enhanced body weight gain”. The “body weight at 3 months of age versus control mice from large (malnourished) litter” value in data set [1] (treated as neonates, large litter, FIG. 2) was “still had elevated body weights”. Also, the “body weight at 3 months of age versus vehicle-treated mice raised in small litters” value in data set [1] (treated as neonates, overcrowded litter, FIG. 2) is listed as “did not differ significantly”. The “behavior in the Forced swim test (immobility time)” value in data set [2] is given as “displayed anti-depressant-like behavior”. Further, the “motor activity in open field (number of squares crossed)” value in data set [3] (2-AG at birth, FIG. 3B) is given as “did not differ from that of controls”.

As to `Cc1c(C(=O)NN2CCCCC2)nn(-c2ccc(Cl)cc2Cl)c1-c1ccc(Cl)cc1` [Rimonabant], the “effect on pup growth” value in data set [4] (injected directly into the brain, 2-3 mm depth, 4.5, 9.0 or 22.5 μg) is given as “none of the centrally injected regimens had any effect on pup growth”. Moreover, in data set [4] (s.c. 20 or 40 mg/kg), the body weight gain entry is given as “significantly retarded body weight gain”. Moreover, in data set [5] (FIG. 9B, P<0.0001), the “growth (body weight)” value is “highly significant delay in growth”. Besides, in data set [5] (FIG. 9C, P<0.01 versus controls), the mortality rate is recorded as 60%. The “sensorimotor gating, prepulse inhibition of acoustic startle response (% PPI) versus vehicle control” value in data set [6] was “significantly lower”. In addition, in data set [3] (rimonabant at birth, ICR strain, FIG. 6, P<0.001), the “motor activity in open field (number of squares crossed)” value is “hyperactive”.

On to `CCCCCc1cc(O)c2c(c1)OC(C)(C)[C@@H]1CCC(C)=C[C@@H]21` [THC, Δ^9-tetrahydrocannabinol], for which the “effect on the body weight curve” value in data set [1] (THC 1 or 5 mg/kg, daily injections for the first 5 days of life) is given as “Neither of the doses of THC had an effect”. Moreover, the “effect on food intake ('milkbands')” value in data set [7] is “Neither of the doses of THC had an effect”.

(Values after US20110172305A1, “Endocannabinoids for Enhancing Growth and Development in Infants” (priority 2007, published 2011).)
